Measurements taken from patent US8575338B2, “Pyrimidine, pyridine and triazine derivatives as maxi-K channel openers” (Mitsubishi Tanabe Pharma Corporation, priority 2008, dated 2013).

What was measured:
Cox-1 = target: T1, Cox-1 (Rattus norvegicus, UniProt Q63921); test: COXs inhibition, rat whole blood Cox-1; assay type: cell-based; conditions: read-out: ratWB Cox-1 IC50
T1 construct: from tissue; host or cells: rat whole blood ('ratWB')
T1 sequence (Q63921 27-602): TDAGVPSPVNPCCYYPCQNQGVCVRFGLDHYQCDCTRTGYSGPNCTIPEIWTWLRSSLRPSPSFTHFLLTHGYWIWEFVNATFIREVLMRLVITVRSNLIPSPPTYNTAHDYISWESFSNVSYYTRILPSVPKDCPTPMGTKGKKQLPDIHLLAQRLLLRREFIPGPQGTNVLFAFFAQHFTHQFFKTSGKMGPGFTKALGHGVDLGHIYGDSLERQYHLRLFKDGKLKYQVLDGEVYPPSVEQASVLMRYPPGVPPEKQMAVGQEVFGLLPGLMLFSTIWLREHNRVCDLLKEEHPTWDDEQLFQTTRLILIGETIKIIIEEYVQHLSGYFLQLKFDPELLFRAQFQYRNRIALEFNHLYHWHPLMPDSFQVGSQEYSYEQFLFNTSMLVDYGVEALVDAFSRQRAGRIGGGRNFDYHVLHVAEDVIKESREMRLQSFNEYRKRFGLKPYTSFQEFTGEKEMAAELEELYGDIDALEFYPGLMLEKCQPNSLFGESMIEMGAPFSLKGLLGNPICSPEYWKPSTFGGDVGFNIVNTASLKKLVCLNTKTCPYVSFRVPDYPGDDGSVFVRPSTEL
Method: Methods for Testing Compounds on Inhibiting COXs
Activities of inhibiting COXs can be investigated by the manner described in Proc. Natl. Acad. Sci. USA 96, 7563, […].
As a result, compounds of the present invention are less or no potent COXs inhibitors. A result of COXs inhibition of the selected compounds (Example Nos. 1, 3, 12, 188, 474, 497, 507, 513, 527, 533, 562, and 638) are: ratWB Cox-1 IC50>30 μM and ratWB IC50>30 μM.

human BKαβ1 channels = target: T2, human BKαβ1 channels (Homo sapiens, UniProt Q12791); test: BK current in CHO cells expressing human BKαβ1 (PatchXpress whole-cell patch clamp), EC100; assay type: cell-based; conditions: drug concentration causing 100% increase of BK current
T2 construct: expressed in transfected cells; host or cells: CHO cells (G418 and hygromycin selection)
T2 sequence (Q12791 whole entry): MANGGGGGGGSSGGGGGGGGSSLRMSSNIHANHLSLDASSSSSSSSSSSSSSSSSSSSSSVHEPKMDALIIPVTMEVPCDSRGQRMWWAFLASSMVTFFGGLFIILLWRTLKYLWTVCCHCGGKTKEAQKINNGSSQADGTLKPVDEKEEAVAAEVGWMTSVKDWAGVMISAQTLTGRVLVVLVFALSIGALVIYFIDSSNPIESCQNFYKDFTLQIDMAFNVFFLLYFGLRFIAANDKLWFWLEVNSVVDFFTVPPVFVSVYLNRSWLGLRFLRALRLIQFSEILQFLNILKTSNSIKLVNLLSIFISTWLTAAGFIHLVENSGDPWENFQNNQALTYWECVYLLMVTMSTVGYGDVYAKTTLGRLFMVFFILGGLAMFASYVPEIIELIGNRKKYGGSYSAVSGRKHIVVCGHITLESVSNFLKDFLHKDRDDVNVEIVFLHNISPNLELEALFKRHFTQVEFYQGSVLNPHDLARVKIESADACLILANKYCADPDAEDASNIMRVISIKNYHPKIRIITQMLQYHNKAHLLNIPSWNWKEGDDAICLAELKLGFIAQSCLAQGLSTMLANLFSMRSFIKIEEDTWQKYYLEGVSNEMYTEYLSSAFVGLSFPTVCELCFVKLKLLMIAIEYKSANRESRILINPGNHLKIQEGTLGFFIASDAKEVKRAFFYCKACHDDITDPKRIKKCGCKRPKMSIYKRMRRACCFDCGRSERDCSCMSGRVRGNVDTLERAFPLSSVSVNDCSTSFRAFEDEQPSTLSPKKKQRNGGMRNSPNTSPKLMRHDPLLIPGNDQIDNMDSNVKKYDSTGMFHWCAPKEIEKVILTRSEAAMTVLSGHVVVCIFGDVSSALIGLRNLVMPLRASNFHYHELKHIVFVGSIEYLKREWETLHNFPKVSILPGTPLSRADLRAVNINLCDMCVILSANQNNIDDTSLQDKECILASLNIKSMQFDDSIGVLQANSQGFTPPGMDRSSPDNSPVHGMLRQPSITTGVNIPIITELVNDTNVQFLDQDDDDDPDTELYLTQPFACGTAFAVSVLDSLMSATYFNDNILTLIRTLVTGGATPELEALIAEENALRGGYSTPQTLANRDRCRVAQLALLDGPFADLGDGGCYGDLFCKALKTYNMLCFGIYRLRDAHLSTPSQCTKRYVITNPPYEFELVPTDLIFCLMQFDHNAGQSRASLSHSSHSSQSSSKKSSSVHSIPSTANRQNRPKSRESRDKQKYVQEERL
T2 sequence (Q16558 whole entry partner): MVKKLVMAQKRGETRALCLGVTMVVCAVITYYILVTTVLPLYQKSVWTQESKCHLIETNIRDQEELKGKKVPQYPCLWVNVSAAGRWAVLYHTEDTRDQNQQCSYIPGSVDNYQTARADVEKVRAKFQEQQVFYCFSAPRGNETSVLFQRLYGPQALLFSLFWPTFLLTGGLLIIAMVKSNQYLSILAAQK
Method: Methods for Testing Compounds on Human BKαβ1 Channels Expressed Cho Cells
CHO cells expressing human BKαβ1 were cultured in T75 or 6 well cell culture cluster. Medium: DMEM/F12+10% FBS+0.5 mg/mL G418/genetecin+0.1 mg/mL Hygromycin. Split cells every 3-4 days at 80-90% confluence. Use cells for experiments 60-72 hrs after re-passage and at ˜90% confluence.
Trypsin solution (0.05% Trypsin+0.1% EDTA), Ca^2+ free PBS and culture medium were warmed to 37° C. Inspect the T75 flask for cell confluence. Remove culture medium and add warm Ca^2+ free PBS to wash cells. Remove Ca^2+ free PBS and add warm Trypsin solution. Put the T75 flask back to 37° C. incubator for about 4.5 minutes. Stop Trypsin activity by adding culture medium. Spin the cells down. Suspend cells in 120-160 μL external solution for BK current recording and use the cells as soon as possible.
PatchXpress Sealchip 16 electrodes (AVIVA Biosciences) and PatchXpress 7000A (Axon Instruments, Inc) were used for BK current recording. Flat bottom 1.5 mL glass vial (HiPep Laboratories) were used for containing external solutions (±compounds). The holes in the sealchip (equivalent to patch electrode) had resistance about 1.5 MΩ. Cell membrane capacitance was compensated and access resistance was also compensated by 40%. Voltage-clamp protocol: Holding voltage=0 mV. Record BK current during 200-ms steps between +80 to +120 mV in 10 mV increments and 2 sec inter-pulse interval. On-line digital leak subtraction was performed by a P/−4 procedure. After whole-cell configuration was established, 2 minute was used to optimize access resistance. Then the chamber was washed with control bath solution for 1 minute to remove excessive cells. Control bath solution was added with robotic pipette and control BK current was recorded after 1 minute equilibrium time. For each drug concentration, 45 μL drug solution was added three times with “suction before adding” mode which left old solution. For each drug addition, 1 minute equilibrium time was given. BK current was measured at each drug concentrations (usually within 3.5 minutes after first drug addition). Calculate % change of BK current at the voltage step when the control BK current first exceeding 200 pA. If the control BK current was less than 200 pA at 120 mV, the cell was not used. % changes were calculated as 100*(Id−Ic)/Ic, where Id was the current amplitude in the presence of drug and Ic was the control current amplitude.
EC100 was defined as the drug concentration causing 100% increase of BK current calculated by the method described above. EC100 was determined by the data points just below and above 100%. % Increase of BK current was plotted against log [drug concentration]. A straight line connected two data points flanking 100%. From this straight line, the concentration corresponding to 100% increase of BK current was determined as EC100.
Compounds were dissolved in DMSO to make 10 mM stock solutions. Subsequent dilutions were made with external solution. The testing drug concentrations were 0.1, 0.3, 1, 3 and 10 μM depending on the potency of compounds. The highest DMSO concentration was 0.1%. External solution (in mM): 140 NaCl, 4 KCl, 1 MgCl2, 2 CaCl2, 10 Glucose, 10 HEPES; pH=7.4 with NaOH. Internal solution (in mM): 140 KCl, 5 EGTA, 1 MgCl2, 5 MgATP, 0.2 CaCl2, 5 HEPES; pH=7.2 with KOH.

[1] = tested on: rhythmic bladder contractions; test: Inhibitory effect on the rhythmic bladder contractions in anesthetized rats; assay type: in vivo, rat; conditions: 10 mg/kg
Excerpt: Inhibitory Effect on the Rhythmic Bladder Contractions in Anesthetized Rats
Female Sprague-Dawley rats (9 to 12 weeks old weighing between 200 to 300 g) were anethethized with urethane (subcutaneously administered with a dose of 1.2 g/kg). Both ureters were cannulated to excrete urine. A cannula was inserted into the bladder via the urethra and secured with a ligature around the urethral opening and connected to a three-way stopcock. The ends were connected to a pressure transducer for measurement of bladder pressure and to a infusion pump for intravesical infusion of saline. A cannula was inserted in the femoral vein for intravenous (i.v.) drug administration. Following a over 20 minute post-surgical stabilization period and emptying of urine in the bladder, saline was infused into the bladder (50 μl/min) to evoke the micturition reflex. After the rhythmic bladder contractions had occurred, the saline infusion rate into the bladder was changed to 5 μl/min in order to maintain these contractions. Compounds were administered after stable rhythmic bladder contraction was obtained over 15 minutes. All compounds were dissolved in saline containing 10% dimethyl acetamide for intravenous administration (1 ml/kg). When iberiotoxin, a large conductance calcium-activated K channel blocker (0.15 mg/kg, i.v.) was administered for comparison purposes, it was administered 5 minutes before drug administration.
The frequencies (contractions per minute) of rhythmic bladder contractions were calculated for 10 minutes before and after drug administration. The efficacy of compounds expressed as percent of inhibition in frequency, which calculated from the following formula: (1−frequency after dosing/frequency before dosing)×100(%)

| IC50 (Cox-1) [µM] | EC100 (human BKαβ1 channels) [µM] | SMILES | percent of inhibition in frequency of rhythmic bladder contractions ([1]; anesthetized female Sprague-Dawley rats, i.v., 10 minutes before vs after dosing) [%] | percent of inhibition in frequency of rhythmic bladder contractions ([1]; anesthetized rats, intravenous) |
| --- | --- | --- | --- | --- |
| – | 0.13 | CCOc1cc(-c2nc(-c3ccc(F)cc3)nc(OC3(C(=O)[O-])CC3)c2C)ccc1F.[Na+] [Example 977] | – | B (B: 50 > inhibition(%) > 30) |
| – | 0.03 | Cc1ccc(Cl)cc1-c1nc(OC2(C(=O)[O-])CC2)nc(-c2ccc(Cl)cc2)n1.[Na+] [Example 1091] | – | B (B: 50 > inhibition(%) > 30) |
| – | 0.3 | O=C([O-])C1(Oc2cc(N3CCc4cc(F)ccc4C3)nc(-c3ccc(F)cc3)n2)CC1.[Na+] [Example 1110] | – | B (B: 50 > inhibition(%) > 30) |
| – | 0.19 | COCC1CCN(c2nc(OC3(C(=O)O)CC3)cc(-c3cc(Cl)c(Cl)s3)n2)CC1 [Example 1217] | – | – |
| – | 0.15 | COCCC1CCN(c2nc(OC3(C(=O)O)CC3)cc(-c3cc(Cl)c(Cl)s3)n2)CC1 [Example 1218] | – | – |
| – | 0.37 | CCO[C@H]1CCCN(c2nc(OC3(C(=O)[O-])CC3)cc(-c3cc(Cl)c(Cl)s3)n2)C1.[Na+] [Example 1227] | – | B (B: 50 > inhibition(%) > 30) |
| – | 0.12 | O=C(O)C1(Oc2cc(OCc3ccc(F)cc3)nc(-c3ccc(Cl)cc3)n2)CC1 [Example 1281] | – | – |
| – | 1.2 | O=C(O)C1(Oc2cc(-c3ccc(Cl)cc3)nc(OCc3ccc(F)c(F)c3)n2)CC1 [Example 1286] | – | – |

The remaining lines, values behind:

| SMILES | IC50 (Cox-1) [µM] | EC100 (human BKαβ1 channels) [µM] | percent of inhibition in frequency of rhythmic bladder contractions ([1]; anesthetized female Sprague-Dawley rats, i.v., 10 minutes before vs after dosing) [%] | percent of inhibition in frequency of rhythmic bladder contractions ([1]; anesthetized rats, intravenous) |
| --- | --- | --- | --- | --- |
| CC(C)(Oc1cc(N2CCCCC2)nc(-c2ccc(Cl)c(F)c2)n1)C(=O)O [Example 1] | > 30 | – | – | – |
| O=C(O)COc1cc(N2CCc3ccccc32)nc(-c2ccc(Cl)c(F)c2)n1 [Example 3] | > 30 | – | – | – |
| COC[C@@H]1CCCN1c1cc(OC2(C(=O)[O-])CC2)nc(-c2cc(Cl)c(Cl)s2)n1.[Na+] [Example 5] | – | 0.78 | 78 | – |
| COC[C@@H]1CCCN1c1cc(OC(C)(C)C(=O)[O-])nc(-c2ccc(Cl)c(F)c2)n1.[Na+] [Example 12] | – | 1.39 | – | A (A: inhibition(%) > 50) |
| CC(C)(Oc1cc(N2CCC[C@H]2CF)nc(-c2ccc(Cl)c(F)c2)n1)C(=O)[O-].[Na+] [Example 22] | – | – | – | A (A: inhibition(%) > 50) |
| CCC(CC)(Oc1cc(N2CCC[C@H]2COC)nc(-c2ccc(Cl)c(F)c2)n1)C(=O)[O-].[Na+] [Example 31] | – | 0.14 | – | B (B: 50 > inhibition(%) > 30) |
| CC(C)OC1CCN(c2cc(OC3(C(=O)[O-])CC3)nc(-c3ccc(Cl)c(F)c3)n2)CC1.[Na+] [Example 52] | – | – | – | A (A: inhibition(%) > 50) |
| O=C([O-])C1(Oc2cc(N3CCC(CCO)CC3)nc(-c3ccc(Cl)c(F)c3)n2)CCCC1.[Na+] [Example 59] | – | 0.51 | – | B (B: 50 > inhibition(%) > 30) |
| O=C(O)COc1cc(-c2ccc(Cl)c(F)c2)nc(-c2ccc(F)cc2)n1 [Example 188] | > 30 | – | – | – |
| CC(C)(Oc1cc(-c2cccc3cccnc23)nc(-c2ccc(Cl)c(F)c2)n1)C(=O)[O-].[Na+] [Example 497] | – | 0.31 | – | B (B: 50 > inhibition(%) > 30) |
| COCc1ccc(-c2cc(OC3(C(=O)[O-])CC3)nc(-c3ccc(Cl)c(F)c3)n2)cc1.[Na+] [Example 527] | – | 0.37 | – | A (A: inhibition(%) > 50) |
| COc1ccc(-c2cc(OC3(C(=O)[O-])CC3)nc(-c3ccc(Cl)c(F)c3)n2)cn1.[Na+] [Example 534] | – | 0.36 | – | B (B: 50 > inhibition(%) > 30) |
| COc1ccccc1-c1cc(OC2(C(=O)[O-])CCCC2)nc(-c2ccc(Cl)c(F)c2)n1.[Na+] [Example 565] | – | 0.28 | – | B (B: 50 > inhibition(%) > 30) |
| COc1ccc(-c2cc(OC3(C(=O)[O-])CCCC3)nc(-c3ccc(Cl)c(F)c3)n2)cn1.[Na+] [Example 567] | – | – | – | B (B: 50 > inhibition(%) > 30) |
| COCCOc1cc(F)ccc1-c1cc(OC2(C(=O)[O-])CC2)nc(-c2ccc(F)c(F)c2)n1.[Na+] [Example 619] | – | 0.49 | – | B (B: 50 > inhibition(%) > 30) |
| CCCOC1CCN(c2cc(OC3(C(=O)[O-])CC3)nc(-c3ccc(C(F)(F)F)cc3)n2)CC1.[Na+] [Example 693] | – | – | – | A (A: inhibition(%) > 50) |
